Measurements: ChEMBL document CHEMBL1138740, “Design of 2,5-dimethyl-3-(6-dimethyl-4-methylpyridin-3-yl)-7-dipropylaminopyrazolo[1,5-a]pyrimidine (NBI 30775/R121919) and structure--activity relationships of a series of potent and orally active corticotropin-releasing factor receptor antagonists” (J Med Chem, 2004)

How the values were obtained:
[1] = target: T1, Corticotropin-releasing factor receptor 1 (Homo sapiens, UniProt P34998); assay: Inhibition of [125I]o-CRF binding to CHO cells expressing human CRF1 receptor; type: cell-based
T1 sequence (P34998 whole entry): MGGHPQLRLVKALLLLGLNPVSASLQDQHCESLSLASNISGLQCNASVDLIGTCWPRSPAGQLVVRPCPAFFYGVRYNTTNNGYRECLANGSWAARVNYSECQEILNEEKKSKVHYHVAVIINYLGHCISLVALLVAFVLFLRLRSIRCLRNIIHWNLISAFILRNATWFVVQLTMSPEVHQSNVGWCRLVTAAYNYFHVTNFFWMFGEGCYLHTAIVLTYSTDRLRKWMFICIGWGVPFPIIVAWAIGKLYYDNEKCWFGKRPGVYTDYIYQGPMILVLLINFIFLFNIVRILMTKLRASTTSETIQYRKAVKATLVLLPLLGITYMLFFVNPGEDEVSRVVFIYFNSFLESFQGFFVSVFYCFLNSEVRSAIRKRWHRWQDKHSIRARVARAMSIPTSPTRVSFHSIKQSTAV

[2] = Plasma half-life determined in dawley rats; type: ADME; settings: Sprague-Dawley, rat
[3] = Plasma volume distribution determined in dawley rats; type: ADME, organism-based; settings: Sprague-Dawley, rat
[4] = Plasma clearance determined in dawley rats; type: ADME, organism-based; settings: Sprague-Dawley, rat
[5] = target: T1, Corticotropin-releasing factor receptor 1; assay: Inhibition of CRF-stimulated cAMP production in CHO cells expressing human CRF1 receptor

Row | SMILES | Ki [1] [nM] | also measured
1 | CCCN(CCC)c1cc(C)nc2c(-c3ccc(C)nc3)c(C)nn12 | 21 | –
2 | CCCN(CCC)c1cc(C)nc2c(-c3cnc(N(C)C)cc3C)c(C)nn12 | – | half-life [2]: 1.7 h; Vd [3]: 16.7 L/kg; clearance [4]: 112 mL/min/kg
3 | CCCN(CC1CC1)c1cc(C)nc2c(-c3cnc(N(C)C)cc3C)c(C)nn12 | 2.6 | –
4 | CCCCN(CCCC)c1cc(C)nc2c(-c3cnc(N(C)C)cc3C)c(C)nn12 | 4.2 | –
5 | CCCN(CCOC)c1cc(C)nc2c(-c3ccc(OC)cc3OC)c(C)nn12 | – | IC50 [5]: 76 nM
6 | Cc1cc(NC(C)C(C)C)n2nc(C)c(-c3cnc(N(C)C)cc3C)c2n1 (stereo not given) | 17 | –
7 | CCCN(CCC)c1c(F)c(C)nc2c(-c3cnc(N(C)C)cc3C)c(C)nn12 | 5.6 | IC50 [5]: 50 nM
8 | CCCCN(Cc1ccccc1)c1cc(C)nc2c(-c3cnc(N(C)C)cc3C)c(C)nn12 | 2.9 | –
9 | CCCN(CCC)c1cc(C)nc2c(-c3ncc(N(C)C)cc3C)c(C)nn12 | – | IC50 [5]: 160 nM
10 | Cc1cc(NC(C)CCC(C)C)n2nc(C)c(-c3cnc(N(C)C)cc3C)c2n1 (stereo not given) | 13 | –
11 | CCCN(Cc1ccc2ccccc2c1)c1cc(C)nc2c(-c3cnc(N(C)C)cc3C)c(C)nn12 | 15 | –
12 | CCCC(CCC)Nc1cc(C)nc2c(-c3cnc(N(C)C)cc3C)c(C)nn12 | 4.8 | –
13 | CCC(COC)Nc1cc(C)nc2c(-c3cnc(N(C)C)cc3C)c(C)nn12 (stereo not given) | 260 | –
14 | Cc1cc(N(Cc2ccccc2)C(C)C)n2nc(C)c(-c3cnc(N(C)C)cc3C)c2n1 | 11 | –

Continued, in another order:

Row | Ki [1] [nM] | SMILES | also measured
15 | 2.4 | CCN(Cc1cccc(C)c1)c1cc(C)nc2c(-c3cnc(N(C)C)cc3C)c(C)nn12 | –
16 | 2.6 | CCCCN(CC)c1cc(C)nc2c(-c3cnc(N(C)C)cc3C)c(C)nn12 | –
17 | 8.8 | CCCN(c1ccccc1)c1cc(C)nc2c(-c3cnc(N(C)C)cc3C)c(C)nn12 | –
18 | 1.3 | CCN(Cc1ccc(Cl)cc1)c1cc(C)nc2c(-c3cnc(N(C)C)cc3C)c(C)nn12 | –
19 | 1.6 | CCCN(CC1CC1)c1cc(C)nc2c(-c3ccc(Cl)cc3Cl)c(C)nn12 | IC50 [5]: 29 nM
20 | 240 | CCCN(CCC)c1c(Br)c(C)nc2c(-c3cnc(N(C)C)cc3C)c(C)nn12 | –
21 | 4.2 | CCCN(CCC)c1cc(C)nc2c(-c3ccc(N(C)C)nc3)c(C)nn12 | IC50 [5]: 110 nM
22 | 2.5 | CCN(Cc1ccc(Cl)c(Cl)c1)c1cc(C)nc2c(-c3cnc(N(C)C)cc3C)c(C)nn12 | –
23 | 6.5 | COCC(Cc1ccccc1)Nc1cc(C)nc2c(-c3cnc(N(C)C)cc3C)c(C)nn12 (stereo not given) | –
24 | 5.2 | CCCN(Cc1ccccc1)c1cc(C)nc2c(-c3cnc(N(C)C)cc3C)c(C)nn12 | –
25 | 2.3 | CCN(Cc1ccc(C)cc1)c1cc(C)nc2c(-c3cnc(N(C)C)cc3C)c(C)nn12 | –
26 | 9.4 | CCC(CC)Nc1cc(C)nc2c(-c3cnc(N(C)C)cc3C)c(C)nn12 | –
27 | 39 | CCCN(CCC)c1c(Cl)c(C)nc2c(-c3cnc(N(C)C)cc3C)c(C)nn12 | –
28 | 24 | CCCN(Cc1cccc(OC)c1)c1cc(C)nc2c(-c3cnc(N(C)C)cc3C)c(C)nn12 | –
29 | 2.2 | CCCN(CCC)c1cc(C)nc2c(-c3ccc(N(C)C)nc3C)c(C)nn12 | IC50 [5]: 190 nM
30 | 3.4 | CCN(Cc1ccccc1F)c1cc(C)nc2c(-c3cnc(N(C)C)cc3C)c(C)nn12 | –
31 | 7.3 | CCCN(CCC)c1cc(C)nc2c(-c3cnc(C)cc3C)c(C)nn12 | –
32 | 5.2 | CCCN(CCC)c1cc(C)nc2c(-c3c(C)cc(N(C)C)nc3C)c(C)nn12 | IC50 [5]: 40 nM
33 | 2.4 | CCN(Cc1ccccc1C)c1cc(C)nc2c(-c3cnc(N(C)C)cc3C)c(C)nn12 | –
